Data on 3 molecules can be found in patent US9868956B2, “Methods” (North Carolina State University, priority 2009, dated 2018).

For one assay, the target named is T1, MbPyIRS/tRNACUA pair (Methanosarcina barkeri, UniProt Q6WRH6).
T1 construct: expressed in transfected cells; host or cells: E. coli DH10B transformed with pBKPylS and pMyo4TAGPylT-his6
Kind of assay: Expression of myoglobin-his6 (amber codon at position 4) in E. coli with the MbPyIRS/tRNACUA pair in the presence of the amino acid. As to conditions: for yield of full-length myoglobin-his6 purified by Ni-NTA chromatography: E. coli with pBKPylS and pMyo4TAGPylT-his6, amino acid added to log phase cells (1 mM for 1 and 2); for incorporation by the MbPyIRS/tRNACUA pair (myoglobin-his6 purified by Ni-NTA chromatography): E. coli, 1 mM amino acid. The assay is classed as cell-based. As to the method:
To investigate whether 1 and 2 are substrates for the MbPyIRS/tRNACUA pair, we transformed E. coli with pBKPylS10 (which encodes MbPyIRS) and pMyo4TAGPylT-his610 (which encodes MbtRNACUA and a C-terminally hexahistidine tagged myoglobin gene with an amber codon at position 4). We added 1 or 2 (1 mM) to log phase cells and induced myoglobin-his6 expression. […] This may reflect the greater flexibility of the carbamate linkage. The yield of protein containing 2 was not improved by efforts to evolve the enzyme but was increased 5-fold by increasing the concentration of 2 7.5 fold (Supplementary FIG. 2A).
To investigate if the carbamate linkage provides a general route to the incorporation of other functional groups suitable for bioconjugation, we synthesized a simple aliphatic azide 3 (2 steps, 80% yield, Supplementary Scheme 1 and Supplementary Methods).
To express sperm whale myoglobin with an incorporated unnatural amino acid, we transformed E. coli DH10B cells with pBKPylS and pMyo4TAGPylT-his6. Cells were recovered in 1 mL of LB media for 1 h at 37° C., before incubation (16 h, 37° C., 250 r.p.m.) in 100 mL of LB containing kanamycin (50 μg/mL) and tetracycline (25 μg/mL). 20 mL of this overnight culture was used to inoculate 500 mL of LB supplemented with kanamycin (25 μg/mL), tetracycline (12 μg/mL) and 2 mM of 2. Cells were grown (37° C., 250 r.p.m.), and protein expression was induced at OD600-0.6, by addition of arabinose to a final concentration of 0.2%. After 3 h of induction, cells were harvested. Proteins were extracted by sonication at 4° C. The extract was clarified by centrifugation (20 min, 21,000 g, 4° C.), 300 μL of Ni^2+-NTA beads (Qiagen) were added to the extract, the mixture was incubated with agitation for 1 h at 4° C. Beads were collected by centrifugation (10 min, 1000 g). The beads were twice resuspended in 50 mL wash buffer and spun down at 1000 g. Subsequently, the beads were resuspended in 20 ml of wash buffer and transferred to a column. Protein was eluted in 1 ml of wash buffer supplemented with 200 mM imidazole and was then re-buffered to 20 mM ammonium bicarbonate using a sephadex G25 column. The purified proteins were analysed by 4-12% SDS-PAGE.
E. coli DH10B cells containing pBKPylS and pMyo4TAGPylT were inoculated into LB containing kanamycin (50 μg/mL) and tetracycline (25 μg/mL). The cells were incubated with shaking overnight at 37° C. 200 μL of cells were inoculated into each of 3 mL LB aliquots containing kanamycin (25 μg/mL) and tetracycline (12 μg/mL) and supplemented with different concentrations (7.5 mM, 5 mM, 2.5 mM, 1 mM, 0.75 mM, 0.5 mM, 0.25 mM, 0.1 mM, 0 mM) of 2. After 3 h of incubation with shaking at 37° C., protein expression was induced by the addition of 30 μL of 20% arabinose. After 12 h of expression, cell were collected by centrifugation (16000 g, 5 min) of 1 mL of cell suspension. The cells were resuspended in 100 μL of NuPAGE SDS Sample buffer supplemented with 10% f3-mercaptoethanol, heated at 80° C. for 10 min and centrifuged at 16000 g for 10 min. The crude cell lysate was analysed by 4-12% SDS-PAGE. Western blots were performed with antibodies against the hexahistidine tag (Invitrogen AntiHis monoclonal Mouse antibody).

The nature of assay [1]: Labeling of myoglobin-his6 bearing 2 with azido-probes via copper catalysed [3+2] cycloaddition. The settings on record: biotin azide 5 or By3 azide 6; CuSO4/ascorbate/ligand, pH 8.3. As to the method: In control experiments myoglobin-his6 bearing 3 at position 4 was treated identically. After 18 h, the purified labeling reactions were probed (FIG. 2A).
Quantification of the ratio of biotin or By3 to protein in purified samples provides independent confirmation of the labeling efficiency (Supplementary Methods).
Protein was re-buffered to 100 mM sodium phosphate buffer (pH 8.3) and concentrated to 2.5 mg/mL. 100 mM stock solutions of CuSO4, sulfonated bathophenanthroline sodium salt (GFS Chemicals) and sodium ascorbate in water were prepared, pre-mixed and incubated at room temperature for 5 min. Myoglobin containing 2 (13.5 nmol) was reacted for 15 minutes at 25° C., then 4° C. for 18 h with the biotin azide (Quanta Biodesign) 5 or the By3 azide (Primetech LTD) 6 (50 equivalents, 10 mM in DMSO) and CuSO4 (1 mM)/ascorbate (1 mM)/ligand (2 mM)^20. After 18 h, the solutions were diluted to 1 mL and loaded onto an Illustra™ NAP-10 column. Proteins were eluted into 1.5 mL of 20 mM NH4HCO3, dialyzed overnight with 20 mM NH4HCO3, loaded onto PD10 and eluted into 3.5 mL 20 mM NH4HCO3. […] Protein concentration of the labeled samples were measured by BCA Protein Assay (Thermo Scientific). The Biotin Quantitation Kit (Thermo Scientific) was used to quantify biotin-conjugated protein in labeled samples, and the By3 absorbance at 550 nm was used to quantify purified By3-labeled protein. […]

T1 sequence (Q6WRH6 whole entry): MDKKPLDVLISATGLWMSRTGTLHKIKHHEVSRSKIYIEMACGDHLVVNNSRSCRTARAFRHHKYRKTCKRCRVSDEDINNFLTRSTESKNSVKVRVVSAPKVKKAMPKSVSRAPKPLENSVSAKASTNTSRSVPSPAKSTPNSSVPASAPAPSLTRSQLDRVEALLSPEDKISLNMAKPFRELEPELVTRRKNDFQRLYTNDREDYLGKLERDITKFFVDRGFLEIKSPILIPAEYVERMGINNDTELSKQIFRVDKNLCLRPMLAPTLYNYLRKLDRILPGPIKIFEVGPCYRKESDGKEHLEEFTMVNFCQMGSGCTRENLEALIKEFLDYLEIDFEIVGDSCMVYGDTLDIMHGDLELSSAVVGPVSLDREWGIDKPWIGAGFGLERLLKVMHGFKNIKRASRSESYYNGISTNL

Take `O=C(O)C(F)(F)F.[N-]=[N+]=NCCOC(=O)NCCCC[C@H](N)C(=O)O` [compound 3, (S)-2-amino-6-((2-azidoethoxy)carbonylamino)hexanoic acid TFA salt]: the “yield of full-length myoglobin-his6 purified by Ni-NTA chromatography” value on MbPyIRS/tRNACUA pair is reported as 3 mg/L.
On to `C#CCCC(=O)NCCCC[C@H](N)C(=O)O.O=C(O)C(F)(F)F` [compound 1, (S)-2-amino-6-pent-4-ynamidohexanoic acid TFA salt], for which the “incorporation by the MbPyIRS/tRNACUA pair (myoglobin-his6 purified by Ni-NTA chromatography)” value at MbPyIRS/tRNACUA pair is “only background levels”.
For the molecule `C#CCOC(=O)NCCCC[C@H](N)C(=O)O.O=C(O)C(F)(F)F` [compound 2, (S)-2-amino-6-((prop-2-ynyloxy)carbonylamino)hexanoic acid TFA salt], at MbPyIRS/tRNACUA pair, the “yield of full-length myoglobin-his6 purified by Ni-NTA chromatography” value is listed as 2 mg/L and the “incorporation by the MbPyIRS/tRNACUA pair (myoglobin-his6 purified by Ni-NTA chromatography)” value was “incorporated”. In addition, the “increase in yield of protein containing 2” value on MbPyIRS/tRNACUA pair (on increasing the concentration of 2 7.5 fold, Western blot against his-6 in cell lysates) is reported as 5 fold. Moreover, the “labeling of genetically encoded alkyne with azides that introduce biotin or fluorescent groups” value in assay [1] is “specifically and efficiently labeled”.
